Common to all, as to format: cell-based
In assay [1] the target is T1, Nurr1 (Homo sapiens, UniProt P43354).
T1 construct: 3 types of plasmid DNA, including DNA containing Nurr1-LBD and DNA with β-galactosidase, were transfected into BE(2)C cells; expressed in transfected cells; host or cells: BE(2)C cells
The assay can be described thus: Nurr1 activity, luciferase reporter analysis in transfected BE(2)C cells. The settings on record: for Nurr1 activity (luciferase), multiple of 0.1% DMSO control: BE(2)C cells, 20 hours.

Assay [2] has as its target T1, Nurr1. The assay is described as above. The settings on record: BE(2)C cells, 20 hours. The text has this:
As in Example 2, Nurr1 activity according to the concentration of the diterpene isolated from the extract of Daphne genkwa was confirmed through luciferase analysis.
Specifically, after synthesizing a vector in which the gene having the nucleotide sequence (5′-CTCGGAGGACAGTACTCCG-3 SEQ ID NO:1) to which the GLA4 gene can bind is repeated 8 times to the reporter gene, luciferase, is synthesized, 3 types of plasmid DNA, including DNA containing Nurr1-LBD and DNA with β-galactosidase, were transfected into BE(2)C cells. After 6 hours, the compounds 1 to 10 separated in Example 2 were treated according to the concentrations in Table 1 below. The cells thus treated were cultured in a 5% carbon dioxide incubator at 37° C. for 20 hours, and then luciferase analysis was performed. As a control, 0.1% DMSO was used, and at this time, the activity was increased by multiple, and Amodiaquine was used as a positive control.

Assay [3] relates to nitric oxide production in microglia BV-2 cells. Nature of the assay: Inhibition of nitric oxide production in LPS-treated microglia BV-2 cells (Griess reagent). The settings on record: Mus musculus. The text has this: The death of cranial nerve cells due to an inflammatory reaction in a microglia cell has been reported as one of the main causes of degenerative brain diseases such as dementia and Parkinson's disease. (Sarkar S et al., Neurotoxicology, 44, 250-262 (2014); Bower J H et al., Neurology, 67, 494-496 (2006)). Accordingly, the inhibition activity on nitric oxide production, a representative inflammatory factor, was investigated for the compounds isolated from Example 2 in a microglia. Specifically, microglia BV-2 cells were put into a 96-well plate at 5×10^4 cells/well, and cultured for 2 days, followed by incubation with LPS ([…]) for 24 hours with the compound isolated in Example 2 above. The culture supernatant was measured for absorbance at 540 nm using the Griess reagent to quantify nitrite to investigate the amount of nitric oxide production. Minocyline was used as a positive control.

Where [4] appears, read: High concentration = 1 μM (Table 1).
Setting [5] is: Low concentration = 0.01 μM (Table 1).
Setting [6] is: Mid concentration = 0.1 μM (Table 1).
The mark [7] stands for this setting: BV-2 cells, LPS 24 hours, nitrite by Griess reagent, read-out: IC50, inhibition of nitric oxide production (Table 4).
Setting [8] is: High concentration = 10 μM (Table 1).
Where [9] appears, read: Low concentration = 0.1 μM (Table 1).
Setting [10] is: Mid concentration = 1 μM (Table 1).
[11] abbreviates: BV-2, 24 h, read-out: IC50, inhibition of nitric oxide production (Table 4).

Read-outs that look alike come from different tables or passages of the source.

T1 sequence (P43354 360-595 limits assumed): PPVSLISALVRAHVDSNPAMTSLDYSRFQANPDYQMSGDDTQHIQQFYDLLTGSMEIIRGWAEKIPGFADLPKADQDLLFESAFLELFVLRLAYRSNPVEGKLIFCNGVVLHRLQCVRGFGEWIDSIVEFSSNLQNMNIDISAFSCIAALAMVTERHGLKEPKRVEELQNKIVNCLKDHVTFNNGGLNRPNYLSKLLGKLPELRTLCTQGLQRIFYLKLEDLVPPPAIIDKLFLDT

`CCN(CC)Cc1cc(Nc2ccnc3cc(Cl)ccc23)ccc1O` [AQ, Amodiaquine, reference compound]: the results for the “Nurr1 activity (luciferase), multiple of 0.1% DMSO control” value (“Nurr1 activity … of 0.1% DMSO control” below) in assay [1] (Low concentration = 5 μM (Table 1)) and in assay [1] (Mid concentration = 20 μM (Table 1)) were 0.9 and 1.8, respectively.

Turning to `C=C(C)[C@@]12O[C@@]3(c4ccccc4)O[C@@H]1C1[C@@H]4O[C@]4(CO)[C@@H](O)[C@]4(O)C(=O)C(C)=CC4[C@@]1(O3)[C@H](C)[C@H]2OC(C)=O` (stereo partly drawn) [Formula 1, (2S,3aR,3cS,4aR,5S,5aS,8bR,9R,10R,10aS)-5,5a-dihydroxy-4a-(hydroxymethyl)-7,9-dimethyl-6-oxo-2-phenyl-10a-(prop-1-en-2-yl)-3a,3b,3c,4a,5,5a,8a,9,10,10a-decahydro-6H-2,8b-epoxyoxireno[2″,3″:6′,7′]azuleno[5′,4′:3,4]benzo[1,2-d][1,3]dioxol-10-yl acetate], the “Nurr1 activity … of 0.1% DMSO control” value in assay [2] (setting [4]) was 1.7; in assay [2] (setting [5]), 1.0; in assay [2] (setting [6]), 1.5. Besides, in assay [3] (setting [7]), the IC50 came out at 370 ± 150 nM.

With `C=C(C)[C@]12C[C@@H](C)[C@@]34O[C@](c5ccccc5)(O[C@@H]1C3[C@H](O)[C@@](O)(COC(=O)c1ccccc1)[C@@H](O)[C@@]1(O)C4C[C@H](C)[C@@H]1O)O2` (stereo partly drawn) [Formula 3, ((2S,3aR,4S,5S,6S,6aR,7S,8S,9bR,10R,11aR)-4,5,6,6a,7-pentahydroxy-8,10-dimethyl-2-phenyl-11a-(prop-1-en-2-yl)dodecahydro-5H-2,9b-epoxyazuleno[5′,4′:3,4]benzo[1,2-d][1,3]dioxol-5-yl)methyl benzoate], the “Nurr1 activity … of 0.1% DMSO control” value was determined as 1.4 in assay [2] (setting [8]), 1.2 in assay [2] (setting [9]) and 1.4 in assay [2] (setting [10]). The IC50 in assay [3] (setting [11]) stood at 1060 ± 120 nM.

As to `C=C(C)[C@]12C[C@@H](C)[C@@]34O[C@](c5ccccc5)(O[C@@H]1C3[C@@H]1O[C@]1(COC(=O)c1ccccc1)[C@@H](O)[C@@]1(O)C4C[C@H](C)[C@@H]1O)O2` (stereo partly drawn) [Formula 4, ((2S,3aR,3cS,4aR,5S,5aR,6S,7S,8bR,9R,10aR)-5,5a,6-trihydroxy-7,9-dimethyl-2-phenyl-10a-(prop-1-en-2-yl)dodecahydro-4aH-2,8b-epoxyoxireno[2″,3″:6′,7′]azuleno[5′,4′:3,4]benzo[1,2-d][1,3]dioxol-4a-yl)methyl benzoate], the “Nurr1 activity … of 0.1% DMSO control” value in assay [2] (setting [8]) is reported as 1.7; in assay [2] (setting [9]), 1.0; in assay [2] (setting [10]), 1.4. Also, in assay [3] (setting [11]), the IC50 worked out at 180 ± 40 nM.

Regarding `C=C(C)[C@]1(O)C[C@@H](C)[C@@]2(O)C([C@H]1OC(=O)c1ccccc1)[C@H](O)[C@@](O)(COC(=O)c1ccccc1)[C@@H](O)[C@@]1(O)C2C[C@H](C)[C@@H]1O` (stereo partly drawn) [Formula 5, ((2S,3S,3aR,4S,5S,6S,7R,8R,10R,10aR)-7-(benzoyloxy)-3,3a,4,5,6,8,10a-heptahydroxy-2,10-dimethyl-8-(prop-1-en-2-yl)tetradecahydrobenzo[e]azulen-5-yl)methyl benzoate], the “Nurr1 activity … of 0.1% DMSO control” value is reported as 1.9 in assay [2] (setting [8]), 0.9 in assay [2] (setting [9]) and 1.2 in assay [2] (setting [10]). For the same compound, the IC50 in assay [3] (setting [7]) was found to be 4670 ± 3100 nM.

Consider `C=C(C)[C@@]12O[C@@]3(c4ccccc4)O[C@@H]1C1[C@@H]4O[C@]4(CO)[C@@H](O)[C@]4(O)C(=O)[C@@H](C)CC4[C@@]1(O3)[C@H](C)[C@H]2OC(C)=O` (stereo partly drawn) [Formula 6, (2S,3aR,3cS,4aR,5S,5aS,7S,8bR,9R,10R,10aS)-5,5a-dihydroxy-4a-(hydroxymethyl)-7,9-dimethyl-6-oxo-2-phenyl-10a-(prop-1-en-2-yl)dodecahydro-6H-2,8b-epoxyoxireno[2″,3″:6′,7′]azuleno[5′,4′:3,4]benzo[1,2-d][1,3]dioxol-10-yl acetate], for which the “Nurr1 activity … of 0.1% DMSO control” value worked out at 2.4 in assay [2] (setting [4]), 1.0 in assay [2] (setting [5]) and 1.8 in assay [2] (setting [6]). The IC50 in assay [3] (setting [7]) came out at 250 ± 60 nM.

For the compound `C=C(C)[C@]12C[C@@H](C)[C@@]34O[C@](c5ccccc5)(O[C@@H]1C3[C@H](O)[C@@](O)(CO)[C@@H](O)[C@@]1(O)C4C=C(C)[C@@H]1O)O2` (stereo partly drawn) [Formula 7, (2S,3aR,4S,5S,6S,6aR,7S,9bR,10R,11aR)-5-(hydroxymethyl)-8,10-dimethyl-2-phenyl-11a-(prop-1-en-2-yl)-3a,3b,4,5,6,7,9a,10,11,11a-decahydro-6aH-2,9b-epoxyazuleno[5′,4′:3,4]benzo[1,2-d][1,3]dioxole-4,5,6,6a,7-pentaol], the entries for the “Nurr1 activity … of 0.1% DMSO control” value in assay [2] (setting [8]), in assay [2] (setting [9]) and in assay [2] (setting [10]) were 2.0, 1.2 and 2.6, respectively. Moreover, the concentration for half-maximal inhibition (IC50) in assay [3] (setting [7]) turned out to be 3410 ± 990 nM.

For `C=C(C)[C@]12C[C@@H](C)[C@@]34OC(c5ccccc5)(O[C@@H]1C3[C@@H]1O[C@]1(CO)[C@@H](O)[C@]13OC(=O)O[C@H]1[C@@H](C)CC43)O2` (some centres unmarked) [Formula 10, genkwanin I], the IC50 in assay [3] (setting [7]) was found to be 7790 ± 910 nM. Also, the “Nurr1 activity … of 0.1% DMSO control” value in assay [1] (High concentration = 100 μM (Table 1)) was 1.1; in assay [1] (Low concentration = 1 μM (Table 1)), 1.8; in assay [1] (Mid concentration = 10 μM (Table 1)) it was 1.9.

Take `CN(C)c1ccc(O)c2c1C[C@H]1C[C@H]3[C@H](N(C)C)C(O)=C(C(N)=O)C(=O)[C@@]3(O)C(O)=C1C2=O` [Minocycline, reference compound]: the IC50 in assay [3] (setting [7]) amounted to 21300 ± 480 nM.

On to `C=C(C)[C@]12C[C@@H](C)[C@@]34O[C@](c5ccccc5)(O[C@@H]1C3[C@@H]1O[C@]1(CO)[C@@H](O)[C@@]1(O)C4C[C@H](C)[C@@H]1OC(=O)/C=C/C=C/CCCCC)O2` (stereo partly drawn) [compound 12, (2S,3aR,3cS,4aR,5S,5aS,6S,7S,8bR,9R,10aR)-5,5a-dihydroxy-4a-(hydroxymethyl)-7,9-dimethyl-2-phenyl-10a-(prop-1-en-2-yl)dodecahydro-6H-2,8b-epoxyoxireno[2″,3″:6′,7′]azuleno[5′,4′:3,4]benzo[1,2-d][1,3]dioxol-6-yl (2E,4E)-deca-2,4-dienoate], for which the IC50 in assay [3] (BV-2 cells, LPS 24 hours, nitrite by Griess reagent, read-out: IC50, inhibition of nitric oxide production (Table 5)) was 2300 nM. Further, the “Nurr1 activity (Table 3), relative to control treatment” value in assay [1] (0.03 μM) is recorded as 1.4 ± 0.18; in assay [1] (0.1 μM), “**1.29 ± 0.04”; in assay [1] (0.3 μM), “*1.33 ± 0.06”; in assay [1] (1 μM), “*1.62 ± 0.21”.

Take `C=C(C)[C@@]12O[C@@]3(/C=C/C=C/CCCCC)O[C@@H]1[C@@H]1[C@@H]4O[C@]4(CO)[C@@H](O)[C@]4(O)C(=O)C(C)=C[C@H]4[C@@]1(O3)[C@H](C)[C@H]2OC(C)=O` [compound 15, prostratin Q]: the IC50 in assay [3] (BV-2, 24 h, read-out: IC50, inhibition of nitric oxide production (Table 5)) was found to be 3730 nM. Further, the “Nurr1 activity (Table 3), relative to control treatment” value is 1.17 ± 0.22 in assay [1] (0.03 μM), 1.28 ± 0.35 in assay [1] (0.1 μM), “**1.59 ± 0.08” in assay [1] (0.3 μM) and “*2.12 ± 0.37” in assay [1] (1 μM).
